The target in assay [1] is T1, Akt3 (Homo sapiens, UniProt Q9Y243).
T1 construct: endogenous in cells; host or cells: primary human CD4+/CD45RA+/CD25- naive T cells
The assay can be described thus: Akt3 activation activity of selected compounds. Format: cell-based. The note with it: Table 2. The procedure: (§1) Human CD4+/CD45RA+/CD25-naïve T cells were plated under induction conditions (IL-2/anti-CD3/anti-CD28+TGFβ) in the absence or presence of compounds for 72 hours. To determine the compounds' specificity for each phospho-AKT isoform, phospho-AKT cellular HTRF kits (Cisbio catalogue numbers 63ADK078PEG (pAKT1), 63ADK080PEG (p-AKT2), and 63ADK082PEG (pAKT3)) were used according to manufacturer specifications. Briefly, after removal of the supernatant, cells were lysed, and total protein concentration measured and normalized for all samples. The cell lysates were transferred into 384-well plates and Eu Cryptate antibody+d2 antibody mixture was added. This process was the same for each isoform but utilized the corresponding isoform antibodies from each respective kit. Positive and negative controls (supplied with the kit) were incorporated into each experiment. The plates were incubated overnight. Data acquisition was performed on the Varioskan Lux reader utilizing the settings for the TRF fluorescence protocol. Data was presented as percent change over DMSO-treated controls. Each test condition was run in duplicate, and the assay was performed at least twice.

Assay [2] has as its target T1, Akt3. The assay can be described thus: Akt3 inhibition activity of selected compounds. The format is cell-based. The note with it: Table 1. As to the method: as §1

Molecules are shown by their SMILES. A value given as a limit tells only on which side of the number the result lay.

The IC50 is the concentration that inhibits the measured activity by half. Lower therefore signals inhibition by little substance.

T1 sequence (Q9Y243 whole entry): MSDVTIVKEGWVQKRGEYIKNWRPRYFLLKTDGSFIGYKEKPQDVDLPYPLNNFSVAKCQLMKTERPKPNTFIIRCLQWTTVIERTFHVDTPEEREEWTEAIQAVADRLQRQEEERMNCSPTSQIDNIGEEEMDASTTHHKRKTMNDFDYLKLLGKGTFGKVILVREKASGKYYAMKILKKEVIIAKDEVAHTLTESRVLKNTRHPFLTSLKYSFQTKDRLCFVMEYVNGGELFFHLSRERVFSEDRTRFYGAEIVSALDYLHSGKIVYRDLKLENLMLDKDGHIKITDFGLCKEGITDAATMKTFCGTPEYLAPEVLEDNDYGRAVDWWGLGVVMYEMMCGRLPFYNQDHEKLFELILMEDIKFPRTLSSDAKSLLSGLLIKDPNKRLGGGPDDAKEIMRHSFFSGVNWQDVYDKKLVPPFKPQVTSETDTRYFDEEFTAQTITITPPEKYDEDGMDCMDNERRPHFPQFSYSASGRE

As for `CN(C)c1ccc2nccc(Nc3cccc(C(=O)Nc4cccc(Nc5ccncc5)c4)c3)c2c1` [Compound 31, 3-((6-(dimethylamino)quinolin-4-yl)amino)-N-(3-(pyridin-4-ylamino)phenyl)benzamide], the IC50 on Akt3 [1] is below 1000 nM. For `O=C(Nc1cc(Oc2ccccc2)ccn1)c1cccc(Nc2ccncc2)c1` [Compound 107, N-(4-phenoxypyridin-2-yl)-3-(pyridin-4-ylamino)benzamide], the IC50 against Akt3 [2] is below 5000 nM. On the same count and under the same terms, for `Cc1cc(Nc2ccc3c(c2)CN(c2cccc(Nc4ccncc4)c2)C3=O)ccn1` [Compound 114, 5-(2-methylpyridin-4-ylamino)-2-(3-(pyridin-4-ylamino)phenyl)isoindolin-1-one] the value was below 1000 nM. At Akt3 [2], `O=C(c1cccc(Nc2ccnc3ccc(F)cc23)c1)N1CCc2c(Nc3ccncc3)cccc21` [Compound 67, (3-((6-fluoroquinolin-4-yl)amino)phenyl)(4-(pyridin-4-ylamino)indolin-1-yl)methanone] registered an IC50 below 2000 nM. Still for that read-out and setting: next, `Cc1cc(Nc2cccc(C(=O)Nc3cccc(Nc4ccccc4)c3)c2)cc(N)n1` [Compound 131, 3-(2-amino-6-methylpyridin-4-ylamino)-N-(3-(phenylamino)phenyl)benzamide]: below 10000 nM.

`Cc1cc(Nc2cccc(NC(=O)c3cccc(Nc4ccnc5ccc(N(C)C)cc45)c3)c2)ccn1` [Compound 59, 3-((6-(dimethylamino)quinolin-4-yl)amino)-N-(3-((2-methylpyridin-4-yl)amino)phenyl)benzamide] displayed an IC50 at Akt3 [1] below 1000 nM. With `Cc1cc(Nc2cccc(C(=O)Nc3cc(Nc4ccncc4)ccn3)c2)cc(N)n1` [Compound 125, 3-(2-amino-6-methylpyridin-4-ylamino)-N-(4-(pyridin-4-ylamino)pyridin-2-yl)benzamide], on Akt3 [2], the 50% inhibitory concentration (IC50) is below 5000 nM. In turn, `Cc1cc(Oc2cccc(NC(=O)c3cncc(Nc4ccnc5ccc(N(C)C)cc45)c3)c2)ccn1` [Compound 65, 5-((6-(dimethylamino)quinolin-4-yl)amino)-N-(3-((2-methylpyridin-4-yl)oxy)phenyl)nicotinamide] displayed an IC50 at Akt3 [1] below 2000 nM.

Take `Cc1cc(Nc2cccc(C(=O)Nc3cccc(Nc4ccccc4)c3)c2)ccn1` [Compound 109, 3-((2-methylpyridin-4-yl)amino)-N-(3-(phenylamino)phenyl)benzamide]: on Akt3 [2], the IC50 is below 1000 nM. On the same count and under the same terms, for `C#Cc1ccc2nccc(Nc3cccc(C(=O)Nc4cccc(Nc5ccncc5)c4)c3)c2c1` [Compound 4, 3-((6-ethynylquinolin-4-yl)amino)-N-(3-(pyridin-4-ylamino)phenyl)benzamide] the value was below 1000 nM. On to `N#Cc1ccc2nccc(Nc3cccc(-c4nc5ccc(Nc6ccncc6)nc5[nH]4)c3)c2c1` [Compound 106, 4-((3-(5-(pyridin-4-ylamino)-3H-imidazo[4,5-b]pyridin-2-yl)phenyl)amino)quinoline-6-carbonitrile], for which, on Akt3 [1], the IC50 was below 2000 nM.

Molecule `Cc1c(Nc2cccc(C(=O)Nc3cccc(Nc4ccccc4)c3)c2)ccnc1N` [Compound 129, 3-(2-amino-3-methylpyridin-4-ylamino)-N-(3-(phenylamino)phenyl)benzamide] showed an IC50 on Akt3 [2] below 5000 nM.

As for `Cc1cc(Nc2ccc3c(c2)CN(c2cccc(Nc4ccc(F)cc4)c2)C3=O)ccn1` [Compound 120, 2-(3-(4-fluorophenylamino)phenyl)-5-(2-methylpyridin-4-ylamino)isoindolin-1-one], on Akt3 [2], the IC50 was below 100 nM. On the same count and under the same terms, next, `Nc1cc(Nc2cccc(C(=O)Nc3cc(Nc4ccncc4)ccn3)c2)ccn1` [Compound 128, 3-(2-aminopyridin-4-ylamino)-N-(4-(pyridin-4-ylamino)pyridin-2-yl)benzamide]: below 5000 nM; `O=C(Nc1cc(Nc2ccncc2)ccn1)c1cccc(Nc2cccc3ncccc23)c1` [Compound 126, N-(4-(pyridin-4-ylamino)pyridin-2-yl)-3-(quinolin-5-ylamino)benzamide]: below 1000 nM.

`N#Cc1nccc(Nc2cccc(NC(=O)c3cccc(Nc4ccnc5ccc(F)cc45)c3)c2)c1C(F)(F)F` [Compound 112, N-(3-(2-cyano-3-(trifluoromethyl)pyridin-4-ylamino)phenyl)-3-(6-fluoroquinolin-4-ylamino)benzamide] displayed an IC50 against Akt3 [2] below 5000 nM. Still for that read-out and setting: next, `O=C(Nc1cccc(Nc2ccncc2)n1)c1cccc(Nc2ccncc2)c1` [Compound 108, 3-(pyridin-4-ylamino)-N-(6-(pyridin-4-ylamino)pyridin-2-yl)benzamide]: below 5000 nM; `Nc1cc(Nc2cccc(C(=O)Nc3cccc(Nc4ccccc4)c3)c2)ccn1` [Compound 130, 3-(2-aminopyridin-4-ylamino)-N-(3-(phenylamino)phenyl)benzamide]: below 1000 nM. The same measure, in the same setting: next, `O=C(Nc1cccc(Nc2ccccc2)c1)c1cccc(Nc2ccncc2)c1` [Compound 97, N-(3-(phenylamino)phenyl)-3-(pyridin-4-ylamino)benzamide]: below 5000 nM. For the molecule `N#Cc1ccc2nccc(Nc3cccc(C(=O)Nc4cc(Nc5ccncc5)ccn4)c3)c2c1` [Compound 26, 3-((6-cyanoquinolin-4-yl)amino)-N-(4-(pyridin-4-ylamino)pyridin-2-yl)benzamide], the IC50 on Akt3 [1] is below 5000 nM. In the case of `Cc1cc(Nc2ccc3c(c2)CN(c2cccc(Nc4cccc(F)c4)c2)C3=O)ccn1` [Compound 118, 2-(3-(3-fluorophenylamino)phenyl)-5-(2-methylpyridin-4-ylamino)isoindolin-1-one], the IC50 on Akt3 [2] was below 500 nM. For the molecule `N#Cc1ccc2nccc(Nc3cccc(C(=O)Nc4cccc(Nc5ccncc5)c4)c3)c2c1` [Compound 6, 3-((6-cyanoquinolin-4-yl)amino)-N-(3-(pyridin-4-ylamino)phenyl)benzamide], at Akt3 [1], the IC50 is below 2000 nM. Still for that read-out and setting: for `Cc1cc(Nc2ccnc(NC(=O)c3cccc(Nc4ccnc5ccc(N(C)C)cc45)c3)c2)ccn1` [Compound 61, 3-((6-(dimethylamino)quinolin-4-yl)amino)-N-(4-((2-methylpyridin-4-yl)amino)pyridin-2-yl)benzamide] the value was below 1000 nM. At Akt3 [2], `Cc1c(Nc2cccc(C(=O)Nc3cc(Nc4ccncc4)ccn3)c2)ccnc1N` [Compound 127, 3-(2-amino-3-methylpyridin-4-ylamino)-N-(4-(pyridin-4-ylamino)pyridin-2-yl)benzamide] yielded an IC50 below 5000 nM. Same read-out and setting: next, `O=C(Nc1cccc(Oc2ccncc2)c1)c1cccc(Nc2ccnc3ccc(F)cc23)c1` [Compound 10, 3-((6-fluoroquinolin-4-yl)amino)-N-(3-(pyridin-4-yloxy)phenyl)benzamide]: below 500 nM; `O=C1c2ccc(Nc3ccncc3)cc2CN1c1cccc(NC2CCCC2)c1` [Compound 132, 2-(3-(cyclopentylamino)phenyl)-5-(pyridin-4-ylamino)isoindolin-1-one]: below 1000 nM; `N#Cc1cc(Nc2cccc(NC(=O)c3cccc(Nc4ccnc5ccc(F)cc45)c3)c2)ccn1` [Compound 113, N-(3-(2-cyanopyridin-4-ylamino)phenyl)-3-(6-fluoroquinolin-4-ylamino)benzamide]: below 1000 nM. Same read-out and setting: for `Cc1nccc(Nc2ccc3c(c2)CN(c2cccc(Nc4ccncc4)c2)C3=O)c1Cl` [Compound 119, 5-(3-chloro-2-methylpyridin-4-ylamino)-2-(3-(pyridin-4-ylamino)phenyl)isoindolin-1-one] the value was below 2000 nM. Molecule `CS(=O)(=O)c1ccc2nccc(Nc3cccc(C(=O)Nc4cccc(Nc5ccncc5)c4)c3)c2c1` [Compound 3, 3-((6-(methylsulfonyl)quinolin-4-yl)amino)-N-(3-(pyridin-4-ylamino)phenyl)benzamide] yielded an IC50 against Akt3 [1] below 5000 nM. On to `Cc1cc(Nc2cccc(C(=O)Nc3cccc(Nc4ccccc4)c3)c2)ccn1` [Compound 99, 3-((2-methylpyridin-4-yl)amino)-N-(3-(phenylamino)phenyl)benzamide], for which, on Akt3 [2], the IC50 was below 2000 nM. In turn, `O=C1c2ccc(Nc3ccncc3)cc2CN1c1cccc(Nc2ccncc2)c1` [Compound 110, 5-(pyridin-4-ylamino)-2-(3-(pyridin-4-ylamino)phenyl)isoindolin-1-one] registered an IC50 on Akt3 [2] below 500 nM. The same measure, in the same setting: for `[N-]=[N+]=Nc1ccc2nccc(Nc3cccc(C(=O)Nc4cccc(Nc5ccncc5)c4)c3)c2c1` [Compound 5, 3-((6-azidoquinolin-4-yl)amino)-N-(3-(pyridin-4-ylamino)phenyl)benzamide] the value was below 1000 nM; for `O=C(Nc1cc(Nc2ccncc2)ccn1)c1cccc(Nc2ccnc3ccccc23)c1` [Compound 38, N-(4-(pyridin-4-ylamino)pyridin-2-yl)-3-(quinolin-4-ylamino)benzamide], below 1000 nM. Same read-out and setting: next, `O=C(Nc1cccc(Nc2ccncc2)n1)c1cccc(Nc2ccnc3ccc(F)cc23)c1` [Compound 21, 3-((6-fluoroquinolin-4-yl)amino)-N-(6-(pyridin-4-ylamino)pyridin-2-yl)benzamide]: below 2000 nM.
